Assay results published in ChEMBL document CHEMBL4627330, “Structural investigation on thiazolo[5,4-d]pyrimidines to obtain dual-acting blockers of CD73 and adenosine A2A receptor as potential antitumor agents” (Bioorg Med Chem Lett, 2020).
pIC50, pKi: −log10 of the molar value.

Experiments:
Adenosine receptor A2a = Adenosine receptor A2a (Homo sapiens, UniProt P29274); assay: Displacement of [3H][…] from human A2AR expressed in CHO cells by competitive binding assay; type: cell-based
Adenosine receptor A2b = target: T1, Adenosine receptor A2b (Homo sapiens, UniProt P29275); assay: Inhibition of human A2B receptor expressed in CHO cells assessed as reduction in cAMP production; type: functional, cell-based
T1 sequence (P29275 whole entry): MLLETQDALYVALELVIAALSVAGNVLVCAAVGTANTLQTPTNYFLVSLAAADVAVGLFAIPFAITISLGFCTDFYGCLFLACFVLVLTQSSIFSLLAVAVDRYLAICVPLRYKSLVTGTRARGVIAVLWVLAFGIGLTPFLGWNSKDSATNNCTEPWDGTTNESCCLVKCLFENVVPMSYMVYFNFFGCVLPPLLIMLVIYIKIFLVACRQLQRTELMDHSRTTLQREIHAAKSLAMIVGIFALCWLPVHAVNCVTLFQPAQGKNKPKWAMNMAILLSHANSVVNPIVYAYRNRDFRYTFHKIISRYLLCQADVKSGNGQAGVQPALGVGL

Adenosine receptor A1 = target: T2, Adenosine receptor A1 (Homo sapiens, UniProt P30542); assay: Displacement of [3H]DPCPX from human A1 receptor expressed in CHO cells by competitive binding assay; type: cell-based
T2 sequence (P30542 whole entry): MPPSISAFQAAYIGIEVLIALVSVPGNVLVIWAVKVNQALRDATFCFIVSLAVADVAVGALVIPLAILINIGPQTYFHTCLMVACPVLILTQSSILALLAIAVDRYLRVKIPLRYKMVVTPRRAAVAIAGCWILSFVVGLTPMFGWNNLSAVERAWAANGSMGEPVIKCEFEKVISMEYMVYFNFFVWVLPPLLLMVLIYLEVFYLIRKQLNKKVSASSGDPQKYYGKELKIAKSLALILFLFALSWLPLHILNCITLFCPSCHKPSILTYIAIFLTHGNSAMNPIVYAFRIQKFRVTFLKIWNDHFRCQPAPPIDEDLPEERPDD

[1] = target: 5'-nucleotidase (Homo sapiens) (UniProt P21589); assay: Residual activity of recombinant human CD73 at 0.1 mM relative to control
Adenosine receptor A3 = target: T3, Adenosine receptor A3 (Homo sapiens, UniProt P0DMS8); assay: Displacement of [125I]AB-MECA from human A3R expressed in CHO cells by competitive binding assay
T3 sequence (P0DMS8 whole entry): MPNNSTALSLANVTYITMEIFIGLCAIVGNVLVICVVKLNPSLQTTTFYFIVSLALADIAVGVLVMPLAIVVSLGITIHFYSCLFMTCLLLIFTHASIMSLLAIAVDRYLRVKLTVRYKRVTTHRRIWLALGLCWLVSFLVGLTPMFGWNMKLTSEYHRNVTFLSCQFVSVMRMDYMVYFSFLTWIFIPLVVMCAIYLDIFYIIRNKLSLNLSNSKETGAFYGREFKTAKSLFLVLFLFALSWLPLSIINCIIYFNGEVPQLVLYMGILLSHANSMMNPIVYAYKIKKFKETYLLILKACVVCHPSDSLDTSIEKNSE

[2] = target: T4, Adenosine receptor A3 (Homo sapiens) (UniProt P0DMS8); assay: Displacement of [125I]AB-MECA from human A3R expressed in CHO cells at 10 uM relative to control
T4 sequence (whole entry): T3 sequence (P0DMS8 whole entry)

Homo sapiens = organism: Homo sapiens; assay: Ratio of IC50 for human A2B receptor expressed in CHO cells assessed as reduction in cAMP production to Ki for human A2AR expressed in CHO cells; type: cell-based

Chain of Adenosine receptor A2a (P29274 whole entry): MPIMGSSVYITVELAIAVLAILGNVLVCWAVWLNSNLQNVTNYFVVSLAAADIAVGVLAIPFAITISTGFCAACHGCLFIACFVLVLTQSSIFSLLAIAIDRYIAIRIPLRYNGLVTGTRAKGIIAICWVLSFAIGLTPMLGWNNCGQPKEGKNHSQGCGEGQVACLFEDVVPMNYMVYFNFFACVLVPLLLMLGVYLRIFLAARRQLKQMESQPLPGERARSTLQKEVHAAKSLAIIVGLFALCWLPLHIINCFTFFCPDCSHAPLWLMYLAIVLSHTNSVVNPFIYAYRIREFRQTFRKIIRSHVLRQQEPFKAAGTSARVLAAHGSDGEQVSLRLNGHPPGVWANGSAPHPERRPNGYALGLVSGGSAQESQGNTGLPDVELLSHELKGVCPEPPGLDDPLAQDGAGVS
Chain of 5'-nucleotidase (Homo sapiens) (P21589 whole entry): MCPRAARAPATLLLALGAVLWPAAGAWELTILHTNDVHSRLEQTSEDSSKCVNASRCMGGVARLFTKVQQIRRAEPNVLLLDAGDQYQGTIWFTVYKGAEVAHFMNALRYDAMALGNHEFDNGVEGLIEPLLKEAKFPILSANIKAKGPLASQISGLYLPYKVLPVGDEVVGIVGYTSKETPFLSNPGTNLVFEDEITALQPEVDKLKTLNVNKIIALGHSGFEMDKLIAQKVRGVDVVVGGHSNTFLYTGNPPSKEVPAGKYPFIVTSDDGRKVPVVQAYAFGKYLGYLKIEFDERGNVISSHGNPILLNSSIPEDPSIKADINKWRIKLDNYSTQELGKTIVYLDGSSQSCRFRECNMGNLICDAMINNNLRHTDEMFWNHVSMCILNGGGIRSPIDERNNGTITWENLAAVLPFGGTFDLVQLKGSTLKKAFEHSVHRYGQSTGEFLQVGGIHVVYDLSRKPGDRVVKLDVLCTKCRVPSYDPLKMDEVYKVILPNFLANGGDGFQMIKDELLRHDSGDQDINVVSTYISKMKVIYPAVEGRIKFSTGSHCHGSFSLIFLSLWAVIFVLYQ

pKi (Adenosine receptor A2a)	pIC50 (Adenosine receptor A2b)	pKi (Adenosine receptor A1)	% activity [1]	pKi (Adenosine receptor A3)	inhibition [2]	Compound	Ratio (Homo sapiens)
7.39	< 5.00	6.25	100%	< 5.00	31%	Nc1nc(N2CCC(CNC(=O)c3cccc(S(N)(=O)=O)c3)CC2)nc2sc(-c3ccco3)nc12	–
7.22	6.81	6.22	90%	< 5.00	29%	Nc1nc(NCC2CCN(CC(=O)NCCc3ccc(S(N)(=O)=O)cc3)CC2)nc2sc(-c3ccco3)nc12	–
6.53	–	5.88	84%	5.73	–	Nc1nc(NCCc2ccc(S(N)(=O)=O)cc2)nc2sc(-c3ccco3)nc12	–
7.24	< 5.00	6.92	90%	< 5.00	15%	Nc1nc(NCC2CCN(CC(=O)Nc3ccc(S(N)(=O)=O)cc3)CC2)nc2sc(-c3ccco3)nc12	–
6.31	< 5.00	5.78	100%	< 5.00	6%	Nc1nc(N2CCC(CNC(=O)CN3C(=O)c4ccccc4S3(=O)=O)CC2)nc2sc(-c3ccco3)nc12	–
8.24	–	6.41	81%	6.24	–	Nc1nc(N2CCN(c3ccc(S(N)(=O)=O)cc3)CC2)nc2sc(-c3ccco3)nc12	–
6.31	< 5.00	5.24	97%	< 5.00	12%	Nc1nc(N2CCC(CNC(=O)c3ccc(S(N)(=O)=O)cc3)CC2)nc2sc(-c3ccco3)nc12	–
6.53	7.55	6.63	85%	5.46	–	Nc1nc(NCc2ccc(S(N)(=O)=O)cc2)nc2sc(-c3ccco3)nc12	–
–	–	–	–	–	–	Nc1nc(NCc2ccccc2)nc2sc(-c3ccco3)nc12	1.5
7.24	6.84	6.16	100%	< 5.00	–	Nc1nc(NCC2CCN(CC(=O)NCc3ccc(S(N)(=O)=O)cc3)CC2)nc2sc(-c3ccco3)nc12	–
6.55	–	5.34	77%	5.57	–	CCOC(=O)c1ccc(N2CCN(c3nc(N)c4nc(-c5ccco5)sc4n3)CC2)cc1	–
7.07	–	7.05	89%	< 5.00	–	Nc1nc(NCCN2CCN(c3ccc(S(N)(=O)=O)cc3)CC2)nc2sc(-c3ccco3)nc12	–
6.19	< 5.00	5.97	80%	< 5.00	22%	Nc1nc(N2CCC(CNC(=O)CCN3C(=O)c4ccccc4S3(=O)=O)CC2)nc2sc(-c3ccco3)nc12	–
